Source: patent publication US20240239774A1, “SOLUBLE ADENYLYL CYCLASE (SAC) INHIBITORS AND USES THEREOF” (Cornell University, priority 2021, published 2024)
Entries after “also recorded” stand apart in the source; their conditions may differ.

Key:
human sperm [1] = assay: Flagellar beat analysis of single sperm; details: stimulation with 25 mM NaHCO3; 0.2 μM Example 1 (FIG. 13), 10 nM Example 133
Experimental: Motile sperm were allowed to swim up into the HTF layer, while immotile sperm, as well as other cells or tissue debris, did remain in the ejaculate fraction.
An inverted dark-field video microscope (IX73; Olympus) with a 10× objective (mouse sperm) and a 20× objective (human sperm) (UPLSAPO, NA 0.8; Olympus) was combined with a high-speed camera (ORCA Fusion; Hamamatsu). Dark-field videos were recorded with a frame rate of 200 Hz. The temperature of the heated stage was set to 37° C. (stage top incubator WSKMX; TOKAI HIT).
An inverted dark-field video microscope (IX73; Olympus) with a 10×objective (mouse sperm) or a 20×objective (human sperm) (UPLSAPO, NA 0.8; Olympus) was combined with a high-speed camera (ORCA Fusion; Hamamatsu). Dark-field videos were recorded with a frame rate of 200 Hz. The temperature of the heated stage was set to 37° C. (stage top incubator WSKMX; TOKAI HIT). The images were preprocessed with the imageJ plugin SpermQ Preparator (Gaussian blur with sigma 0.5 px; Subtract background method with radius 5 px) and analyzed using the ImageJ plugin SpermQ [Reference 84]. The beat frequency was determined from the highest peak in the frequency spectrum of the curvature time course, obtained by Fast Fourier Transform.

human sperm [2] = assay: Intracellular cAMP in sperm in vitro; type: cell-based; details: for bicarbonate-induced cAMP rise: 5 μM Example 1 or 10 nM Example 133, capacitating media
Experimental: (§1) cAMP generation was measured in mouse and human sperm. For mouse sperm, aliquots of 2×10^6 mouse sperm were incubated for 12 minutes in the presence or absence of sAC inhibitor in non-capacitating or capacitating TYH buffer. For human sperm, aliquots of 2×10^6 human sperm were incubated for 30 minutes in the presence or absence of sAC inhibitor in non-capacitating or capacitating HTF buffer. In both cases, 0.1% DMSO was used as vehicle control.
(§2) After 5 min, 150 μl of sperm/inhibitor mix was diluted into 1.35 ml non-capacitating or capacitating media with no inhibitor. After 12 minutes (mouse sperm) or 30 minutes (human sperm), sperm were sedimented by centrifugation at 2,000×g for 3 minutes and lysed in 200 μl HCl for 10 minutes. Sperm lysates were centrifuged at 2,000×g for 3 minutes and the cAMP in the supernatant was acetylated and quantified using the Direct cAMP ELISA (Enzo).

mouse sperm [3] = assay: Intracellular cAMP in sperm in vitro; type: cell-based; details: for bicarbonate-induced cAMP rise: 5 μM Example 1 or 10 nM Example 133, capacitating media, 12 minutes
Experimental: as §1, §2

[4] = tested on: mouse oocytes with capacitated wild-type sperm; assay: In vitro fertilization; type: cell-based
Experimental: In vitro fertilization: On the day of preparation, sperm were capacitated for 90 min in HTF medium (EmbryoMax Human Tubal Fluid; Merck Millipore). 100 μl drops of HTF were covered with medium/oil mixture (HTF mixed 1:1 with mineral oil), and 10^5 sperm were added to each drop. Cumulus-enclosed oocytes were prepared from the oviducts of superovulated females and added to the drops. […] The number of 2-cell stages was evaluated after 24 hr.

human sperm [5] = assay: Human sperm hyperactivation (CASA); type: cell-based; details: for hyperactivation of human sperm in vitro: capacitating media, inhibitor present; for inhibition of hyperactivation following dilution into inhibitor-free media: preincubation with 10 μM Example 1 or 100 nM Example 133, diluted 1:100
Experimental: For human sperm, hyperactivation was assessed via CASA following incubation for 1 hour in non-capacitating HTF buffer or capacitating HTF buffer supplemented with 25 mM HCO3 and 5 mg/ml BSA in the presence or absence of the indicated concentration of sAC inhibitor; 0.1% DMSO was used as vehicle control. For rescue experiments, sperm were incubated in the presence of 5 mM db-cAMP and 500 μM IBMX. 8 μl sperm suspension was placed onto a microscope slide (Gold Seal, Erie Scientific, Portsmouth, NH) and covered with a 18×18 mm coverslip (globe Scientific, Mahway, NJ) to create a […] imaging chamber. CASA was performed following analysis guidelines provided by the company, i.e., 30 frames were acquired at a rate of 60 Hz, at least 200 sperm were analyzed per condition. The following parameters were measured: mean path velocity (VAP, μm/sec), curvilinear velocity (VCL, μm/sec), straight-line velocity (VSL, μm/sec), amplitude of lateral head displacement (ALH, μm), and beat cross frequency (BCF, Hz). Human sperm were considered hyperactivated when presenting VCL ≥150 μm/sec, LIN <50%, and ALH ≥[…].
Motility parameters were determined 1 to 45 minutes post dilution, DMSO-treated non-capacitated and capacitated human sperm were used as control. To calculate the percentage of inhibition, the hyperactivation percentage of sperm diluted in inhibitor-containing- or inhibitor-free media was normalized to the hyperactivation percentage of vehicle-treated capacitated sperm at the respective time point and subtracted from 100%.

[6] = tested on: wild type (WT) C57B1/6 mouse eyes; assay: Intraocular pressure (IOP) study; type: in vivo; details: one hour post ip injection
Experimental: A mouse was anesthetized via intraperitoneal (ip) injection of room temperature ketamine/xylazine. Anesthesia was assessed by pinching back. The anesthetized mouse was placed on a platform. The anterior chamber was cannulated using a 33-gauge stainless steel needle. The needle was inserted anterior to the limbus and through the cornea. The cannula was connected to a pressure transducer using teflon tubing and was calibrated to a water height equivalent of 0 mm Hg. The transducer signal was amplified, converted to a digital signal, and the voltage was recorded using LabScribe3 software. IOP was calculated by comparing the change in voltage to a standard calibration curve generated at the end of each experiment using the water height column.

mouse sperm [7] = assay: Acrosome reaction assay; type: cell-based; details: 5 μM Example 1 or 10 nM Example 133; capacitating media 90 minutes
Experimental: Zonae pellucidae were isolated from female mice superovulated by intraperitoneal injection of 10 I.U. […] 3 days before the experiment. 14 hours before oocyte isolation, mice were injected with 10 I.U. […]. Oviducts were collected following cervical dislocation. Cumulus-enclosed oocytes were separated from the oviducts and placed into TYH buffer containing 300 μg/ml hyaluronidase. After 15 minutes, cumulus-free oocytes were transferred into fresh buffer and washed twice. Zonae pellucidae and oocytes were separated by shear forces generated by expulsion from […] pasteur pipettes. Zona pellucidae were counted, transferred into fresh buffer and heat-solubilized by incubation for 10 minutes at 65° C.
For analysis of acrosomal exocytosis, 100 μl of 1×10^7 sperm/ml were capacitated for 90 minutes in TYH buffer supplemented with 3 mg/ml BSA and 25 mM NaHCO3 (mouse sperm) or HTF buffer supplemented with […] HSA and 25 mM NaHCO3 (human sperm). sAC inhibitors were added with capacitating buffer; 0.1% DMSO was used as vehicle control. […] After curing, slides were analyzed using a Zeiss LSM 880 Laser Scanning Confocal Microscope; images were captured with two photomultiplier and one Gallium Arsenide Phosphide detector using ZEN Imaging software. For each condition, at least 600 cells were analyzed using ImageJ 1.52.

human sperm [8] = assay: Acrosome reaction assay; type: cell-based; details: 5 μM Example 1 or 10 nM Example 133; 10 μM progesterone
Experimental: For analysis of acrosomal exocytosis, 100 μl of 1×10^7 sperm/ml were capacitated for 90 minutes in TYH buffer supplemented with 3 mg/ml BSA and 25 mM NaHCO3 (mouse sperm) or HTF buffer supplemented with […] HSA and 25 mM NaHCO3 (human sperm). sAC inhibitors were added with capacitating buffer; 0.1% DMSO was used as vehicle control. Acrosome reaction was induced by incubating mouse sperm with 50 mouse solubilized zonae pellucidae for 15 minutes at 37° C., or human sperm with 10 μM progesterone for 30 minutes at 37° C. The sperm suspensions were sedimented by centrifugation at 2,000×g for 5 minutes and the sedimented sperm were resuspended in 100 μl PBS buffer. Samples were air-dried on microscope slides and fixed for 30 minutes in 100% ethanol at room temperature (RT). For acrosome staining, mouse and human sperm were incubated for 30 minutes in the dark with 5 μg/ml PNA-FITC or 5 μg/ml PSA-FITC, respectively, and counterstained with 2 μg/ml DAPI. After curing, slides were analyzed using a Zeiss LSM 880 Laser Scanning Confocal Microscope; images were captured with two photomultiplier and one Gallium Arsenide Phosphide detector using ZEN Imaging software. For each condition, at least 600 cells were analyzed using ImageJ 1.52.

[9] = preincubation 5 min in 5 μM Example 1 or 10 nM Example 133, then dilution (legend 1:10; text 100-fold)

SMILES	bicarbonate-induced change in flagellar beating / beat frequency (human sperm [1])	bicarbonate-induced cAMP rise (human sperm [2])	bicarbonate-induced cAMP rise (mouse sperm [3])	amount of 2-cell stage oocytes ([4]; 5 μM, control 30%)	fertilization in vitro ([4]; 50 μM)	hyperactivation of human sperm in vitro (human sperm [5])	inhibition of hyperactivation following dilution into inhibitor-free media (human sperm [5])	intraocular pressure (IOP) [6]	blocking acrosome reaction induced by zona pellucidae (mouse sperm [7])	blocking acrosome reaction induced by progesterone (human sperm [8])	inhibition of bicarbonate-induced cAMP synthesis after dilution into inhibitor-free media (human sperm [2]; [9])	inhibition of bicarbonate-induced cAMP synthesis after dilution into inhibitor-free media (mouse sperm [3]; [9])
Cc1c(Cc2ccccc2)c(-c2cc(Cl)nc(N)n2)nn1C [Example 1, 4-(4-benzyl-1,5-dimethyl-pyrazol-3-yl)-6-chloro-pyrimidin-2-amine]	prevents bicarbonate-induced changes in flagellar beating pattern	blocks the bicarbonate-induced cAMP rise	blocks the bicarbonate-induced cAMP rise	10%	fully blocked fertilization	blocked hyperactivation	lost	dose dependently elevates IOP				
Nc1nc(Cl)cc(-c2nn(C(F)F)cc2Cc2ccccc2OCCN2CCOC[C@H]2CO)n1 [Example 133]	more potent than Example 1	completely block	completely block			blocked hyperactivation	persisted		more potent than Example 1	more potent than Example 1	survived a 100-fold dilution; also recorded: inhibits capacitation induced cAMP rise in diluted sperm	survived a 100-fold dilution; also recorded: inhibits capacitation induced cAMP rise in diluted sperm
